Assay results: ChEMBL document CHEMBL1146248, “Cytotoxic small molecule dimers and their inhibitory activity against human breast cancer cells” (Bioorg Med Chem Lett, 2007)
pIC50: −log10 of the molar value.

Experiments:
MCF7 = assay: Antiproliferative activity against human estrogen receptor positive MCF7 cells after 72 hrs; assay type: functional, cell-based; settings: MCF7, 72 h
SK-BR-3 = assay: Antiproliferative activity against human estrogen receptor negative SKBr3 cells overexpressing Her2 after 72 hrs; assay type: functional, cell-based; settings: SK-BR-3, 72 h

pIC50 (MCF7)	pIC50 (SK-BR-3)	SMILES
< 4.00	< 4.00	Cc1cc(C(=O)Nc2ccc3c(c2)OCCO3)c(C)cc1C(=O)Nc1ccc2c(c1)OCCO2
4.25	< 4.00	O=C(Nc1cccc(Cl)c1)c1cccc(C(=O)Nc2cccc(Cl)c2)c1
< 4.00	< 4.00	O=C(Nc1ccccc1F)c1cccc(C(=O)Nc2ccccc2F)c1
< 4.00	< 4.00	O=C(Nc1ccc2c(c1)OCCO2)c1cc(Cl)c(C(=O)Nc2ccc3c(c2)OCCO3)cc1Cl
< 4.00	< 4.00	O=C(Nc1ccc2c(c1)OCCO2)c1cccc(C(=O)Nc2ccc3c(c2)OCCO3)c1
< 4.00	< 4.00	O=C(Nc1ccc2c(c1)OCCO2)c1ccnc(C(=O)Nc2ccc3c(c2)OCCO3)c1
5.38	4.98	O=C(Nc1cc(Cl)cc(Cl)c1)c1ccnc(C(=O)Nc2cc(Cl)cc(Cl)c2)c1
< 4.00	< 4.00	O=C(Nc1cc(Cl)cc(Cl)c1)c1cc(Cl)c(C(=O)Nc2cc(Cl)cc(Cl)c2)cc1Cl
< 4.00	< 4.00	Cc1c(O)ccc2cc(NC(=O)c3cccc(C(=O)Nc4cc5ccc(O)c(C)c5oc4=O)n3)c(=O)oc12
< 4.00	< 4.00	Cc1c(O)ccc2cc(NC(=O)c3cccc(C(=O)Nc4cc5ccc(O)c(C)c5oc4=O)c3)c(=O)oc12
< 4.00	< 4.00	Cc1cc(C(=O)Nc2cc(Cl)cc(Cl)c2)c(C)cc1C(=O)Nc1cc(Cl)cc(Cl)c1
< 4.00	< 4.00	O=C(Nc1cc(Cl)cc(Cl)c1)c1ccc(C(=O)Nc2cc(Cl)cc(Cl)c2)cc1
< 4.00	< 4.00	Cc1c(O)ccc2cc(NC(=O)c3ccnc(C(=O)Nc4cc5ccc(O)c(C)c5oc4=O)c3)c(=O)oc12
< 4.00	< 4.00	O=C(CCCCCCC(=O)Nc1cc(Cl)cc(Cl)c1)Nc1cc(Cl)cc(Cl)c1
< 4.00	< 4.00	O=C(Nc1ccc(F)c(F)c1)c1ccnc(C(=O)Nc2ccc(F)c(F)c2)c1
5.14	5.35	O=C(Nc1ccc2c(c1)OCCOCCOCCOCCO2)c1ccc(C(=O)Nc2ccc3c(c2)OCCOCCOCCOCCO3)nc1
	< 4.00	O=C(Nc1ccc(F)c(F)c1)c1cccc(C(=O)Nc2ccc(F)c(F)c2)c1
< 4.00	< 4.00	O=C(Nc1cc(F)ccc1F)c1cccc(C(=O)Nc2cc(F)ccc2F)n1
< 4.00	< 4.00	O=C(Nc1cc(F)ccc1F)c1cccc(C(=O)Nc2cc(F)ccc2F)c1
< 4.00	< 4.00	O=C(Nc1cc(F)cc(F)c1)c1cccc(C(=O)Nc2cc(F)cc(F)c2)n1
4.28	< 4.00	COc1cc(NC(=O)c2cccc(C(=O)Nc3cc(OC)cc(OC)c3)n2)cc(OC)c1
< 4.00	< 4.00	O=C(Nc1ccc2c(c1)OCCO2)c1ccc(C(=O)Nc2ccc3c(c2)OCCO3)nc1

pIC50 (MCF7)	pIC50 (SK-BR-3)	SMILES
< 4.00	< 4.00	O=C(NCc1ccc2c(c1)OCO2)c1ccc(C(=O)NCc2ccc3c(c2)OCO3)nc1
< 4.00	< 4.00	N#Cc1ccc(NC(=O)c2ccnc(C(=O)Nc3ccc(C#N)cc3)c2)cc1
5.34	4.82	O=C(Nc1ccc2ccccc2c1)c1cccc(C(=O)Nc2ccc3ccccc3c2)c1
< 4.00	< 4.00	O=C(Nc1cc(F)cc(F)c1)c1ccc(C(=O)Nc2cc(F)cc(F)c2)nc1
4.64	4.46	COc1cc(NC(=O)c2ccc(C(=O)Nc3cc(OC)cc(OC)c3)nc2)cc(OC)c1
< 4.00	< 4.00	O=C(Nc1cc(F)ccc1F)c1ccc(C(=O)Nc2cc(F)ccc2F)nc1
< 4.00	< 4.00	Cc1c(O)ccc2cc(NC(=O)c3ccc(C(=O)Nc4cc5ccc(O)c(C)c5oc4=O)nc3)c(=O)oc12
< 4.00	< 4.00	O=C(Nc1ccc2ccccc2c1)c1ccc(C(=O)Nc2ccc3ccccc3c2)nc1
< 4.00	< 4.00	O=C(Nc1ccccc1F)c1ccc(C(=O)Nc2ccccc2F)nc1
< 4.00	< 4.00	O=C(Nc1ccccc1O)c1ccc(C(=O)Nc2ccccc2O)nc1
4.79	3.98	Cc1cc(C)cc(NC(=O)c2ccc(C(=O)Nc3cc(C)cc(C)c3)nc2)c1
4.83	< 4.00	O=C(Nc1cc(F)cc(F)c1)c1ccnc(C(=O)Nc2cc(F)cc(F)c2)c1
< 4.00	< 4.00	O=C(Nc1ccc(Cl)cc1O)c1ccc(C(=O)Nc2ccc(Cl)cc2O)nc1
< 4.00	< 4.00	O=C(Nc1ccc(O)cc1)c1ccc(C(=O)Nc2ccc(O)cc2)nc1
< 4.00	< 4.00	COc1cc(NC(=O)c2ccnc(C(=O)Nc3cc(OC)cc(OC)c3)c2)cc(OC)c1
4.56	4.55	O=C(Nc1cccc(Cl)c1)c1ccc(C(=O)Nc2cccc(Cl)c2)nc1
< 4.00	< 4.00	O=C(NCCc1ccc2c(c1)OCO2)c1ccc(C(=O)NCCc2ccc3c(c2)OCO3)nc1
< 4.00	< 4.00	O=C(Nc1ccc(F)c(F)c1)c1ccc(C(=O)Nc2ccc(F)c(F)c2)nc1
5.62	5.05	O=C(Nc1cccc(Cl)c1)c1ccnc(C(=O)Nc2cccc(Cl)c2)c1
4.39	4.06	O=C(Nc1ccccc1F)c1ccnc(C(=O)Nc2ccccc2F)c1
< 4.00	< 4.00	Cc1cc(C)cc(NC(=O)c2ccnc(C(=O)Nc3cc(C)cc(C)c3)c2)c1
< 4.00	< 4.00	O=C(Nc1cc(F)cc(F)c1)c1cccc(C(=O)Nc2cc(F)cc(F)c2)c1

pIC50 (MCF7)	pIC50 (SK-BR-3)	SMILES
< 4.00	< 4.00	COc1cc(NC(=O)c2cccc(C(=O)Nc3cc(OC)cc(OC)c3)c2)cc(OC)c1
5.68	4.91	Cc1cc(C)cc(NC(=O)c2cccc(C(=O)Nc3cc(C)cc(C)c3)c2)c1
< 4.00	< 4.00	O=C(Nc1ccc2c(c1)OCCO2)c1ccc(C(=O)Nc2ccc3c(c2)OCCO3)c([N+](=O)[O-])c1
< 4.00	< 4.00	O=C(Nc1cc(Cl)cc(Cl)c1)c1ccc(C(=O)Nc2cc(Cl)cc(Cl)c2)c2ccccc12
4.56	< 4.00	O=C(Nc1ccc2c(c1)OCCO2)c1cccc(C(=O)Nc2ccc3c(c2)OCCO3)n1
4.99	4.79	O=C(Nc1cc(Cl)cc(Cl)c1)c1cccc(C(=O)Nc2cc(Cl)cc(Cl)c2)n1
< 4.00	< 4.00	O=C(Nc1ccc2c(c1)OCCO2)c1ccc(C(=O)Nc2ccc3c(c2)OCCO3)cc1
< 4.00	< 4.00	O=C(Nc1ccc2c(c1)OCCOCCOCCOCCO2)c1cccc(C(=O)Nc2ccc3c(c2)OCCOCCOCCOCCO3)c1
5.57	5.35	O=C(Nc1cc(Cl)cc(Cl)c1)c1cccc(C(=O)Nc2cc(Cl)cc(Cl)c2)c1
< 4.00	< 4.00	O=C(Nc1ccc2c(c1)OCO2)c1ccc(C(=O)Nc2ccc3c(c2)OCO3)nc1
5.39	5.64	O=C(Nc1cc(Cl)cc(Cl)c1)c1ccc(C(=O)Nc2cc(Cl)cc(Cl)c2)nc1
< 4.00	< 4.00	O=C(NC1CCCCC1)c1ccc(C(=O)NC2CCCCC2)nc1
< 4.00	< 4.00	O=C(Nc1cc(F)ccc1F)c1ccnc(C(=O)Nc2cc(F)ccc2F)c1
< 4.00	< 4.00	Cc1cc(C)cc(NC(=O)c2cccc(C(=O)Nc3cc(C)cc(C)c3)n2)c1
< 4.00	< 4.00	O=C(Nc1ccc(F)c(F)c1)c1cccc(C(=O)Nc2ccc(F)c(F)c2)n1
4.09	< 4.00	O=C(Nc1ccc2ccccc2c1)c1ccnc(C(=O)Nc2ccc3ccccc3c2)c1
< 4.00	< 4.00	O=C(Nc1ccc2c(c1)OCCO2)c1cnc(C(=O)Nc2ccc3c(c2)OCCO3)cn1
< 4.00	< 4.00	N#Cc1ccc(NC(=O)c2cccc(C(=O)Nc3ccc(C#N)cc3)c2)cc1
< 4.00	< 4.00	O=C(CCCCCCC(=O)Nc1ccc2c(c1)OCCO2)Nc1ccc2c(c1)OCCO2
< 4.00	< 4.00	O=C(Nc1ccc2c(c1)OCCO2)c1ccc(C(=O)Nc2ccc3c(c2)OCCO3)c2ccccc12

SMILES	pIC50 (MCF7)	pIC50 (SK-BR-3)
CO[C@H]1[C@H](OC(=O)c2ccc(C)[nH]2)[C@H](O)[C@@H](Oc2ccc3c(O)c(NC(=O)c4c[nH]c(C(=O)Nc5c(O)c6ccc(O[C@H]7OC(C)(C)[C@@H](OC)[C@H](OC(=O)c8ccc(C)[nH]8)[C@@H]7O)c(C)c6oc5=O)c4C)c(=O)oc3c2C)OC1(C)C [COUMERMYCIN A1]	5.17	5.49
